Where a SMILES comes first, the peptide text is derived from it. Bridges are numbered along the chain shown (N, C = ends).
Assay: Determination of the protein binding (90% serum, 30 kDa filter, HPLC)
Assay type: in vitro ADME
Conditions: serum
Description: Protein binding assays were performed as follows. The purified peptides were mixed with 90% serum and centrifuged through a 30 kDa filter. The ultra-filtrate and the non filtrated serum samples were quantified by HPLC measurements and the protein binding was subsequently calculated.

| Structure (SMILES) | fraction unbound |
| --- | --- |
| CC(C)[C@@H]1NC(=O)CNC(=O)[C@H](CC(N)=O)NC(=O)[C@H](CCCNC(=N)N)NC(=O)[C@H](CCCNC(=N)N)NC(=O)[C@H](C(C)C)NC(=O)[C@@H]2CSSC[C@H](NC(=O)[C@H](C(C)C)NC(=O)[C@H](CCCNC(=N)N)NC1=O)C(=O)N[C@@H](Cc1ccc(O)cc1)C(=O)N[C@@H](CCCNC(=N)N)C(=O)N[C@@H](CCCNC(=N)N)C(=O)N[C@H](C(=O)N[C@@H](CC(N)=O)C(=O)O)CSSC[C@H](NC(=O)[C@H](Cc1ccccc1)NC(=O)CN)C(=O)N[C@@H](Cc1c[nH]c3ccccc13)C(=O)N[C@@H](Cc1ccc(O)cc1)C(=O)N[C@@H](C(C)C)C(=O)N2 [compound 28] (H-GFCWYVCVRRNGVRVCYRRCN-OH; disulfide 3-20, 7-16 (inferred); N-terminus and C-terminus assumed) | 0.08 |
| CC(C)[C@@H]1NC(=O)[C@H](CCCNC(=N)N)NC(=O)[C@H](C)NC(=O)CNC(=O)[C@H](CC(N)=O)NC(=O)[C@H](CCCNC(=N)N)NC(=O)[C@H](Cc2ccc(O)cc2)NC(=O)[C@H](C(C)C)NC(=O)[C@@H]2CSSC[C@H](NC1=O)C(=O)N[C@@H](Cc1ccc(O)cc1)C(=O)N[C@@H](CCCNC(=N)N)C(=O)N[C@@H](CCCNC(=N)N)C(=O)N[C@H](C(=O)N[C@@H](CC(N)=O)C(=O)O)CSSC[C@H](NC(=O)[C@H](Cc1ccccc1)NC(=O)CN)C(=O)N[C@@H](Cc1c[nH]c3ccccc13)C(=O)N[C@@H](Cc1ccc(O)cc1)C(=O)N[C@@H](C(C)C)C(=O)N2 [compound 29] (H-GFCWYVCVYRNGARVCYRRCN-OH; disulfide 3-20, 7-16 (inferred); N-terminus and C-terminus assumed) | 0.01 |
| CC(C)[C@@H]1NC(=O)[C@H](CCCNC(=N)N)NC(=O)CNC(=O)CNC(=O)[C@H](CC(N)=O)NC(=O)[C@H](CCCNC(=N)N)NC(=O)[C@H](Cc2ccc(O)cc2)NC(=O)[C@H](C(C)C)NC(=O)[C@@H]2CSSC[C@H](NC1=O)C(=O)N[C@@H](Cc1ccc(O)cc1)C(=O)N[C@@H](CCCNC(=N)N)C(=O)N[C@@H](CCCNC(=N)N)C(=O)N[C@H](C(=O)N[C@@H](CC(N)=O)C(=O)O)CSSC[C@H](NC(=O)[C@H](Cc1ccccc1)NC(=O)CN)C(=O)N[C@@H](Cc1c[nH]c3ccccc13)C(=O)N[C@@H](Cc1ccc(O)cc1)C(=O)N[C@@H](C(C)C)C(=O)N2 [compound 30] (H-GFCWYVCVYRNGGRVCYRRCN-OH; disulfide 3-20, 7-16 (inferred); N-terminus and C-terminus assumed) | 0.01 |
| CC(C)[C@@H]1NC(=O)[C@@H]2CSSC[C@H](NC(=O)[C@H](C(C)C)NC(=O)[C@H](CCCNC(=N)N)NC(=O)[C@@H]3CCCN3C(=O)CNC(=O)[C@H](CC(N)=O)NC(=O)[C@H](CCCNC(=N)N)NC(=O)[C@H](Cc3ccc(O)cc3)NC1=O)C(=O)N[C@@H](Cc1ccc(O)cc1)C(=O)N[C@@H](CCCNC(=N)N)C(=O)N[C@@H](CCCNC(=N)N)C(=O)N[C@H](C(=O)N[C@@H](CC(N)=O)C(=O)O)CSSC[C@H](NC(=O)[C@H](Cc1ccccc1)NC(=O)CN)C(=O)N[C@@H](Cc1c[nH]c3ccccc13)C(=O)N[C@@H](Cc1ccc(O)cc1)C(=O)N[C@@H](C(C)C)C(=O)N2 [compound 33] (H-GFCWYVCVYRNGPRVCYRRCN-OH; disulfide 3-20, 7-16 (inferred); N-terminus and C-terminus assumed) | 0.01 |
| CC(C)[C@@H]1NC(=O)[C@H](CCCNC(=N)N)NC(=O)[C@H](CO)NC(=O)CNC(=O)[C@H](CC(N)=O)NC(=O)[C@H](CCCNC(=N)N)NC(=O)[C@H](Cc2ccc(O)cc2)NC(=O)[C@H](C(C)C)NC(=O)[C@@H]2CSSC[C@H](NC1=O)C(=O)N[C@@H](Cc1ccc(O)cc1)C(=O)N[C@@H](CCCNC(=N)N)C(=O)N[C@@H](CCCNC(=N)N)C(=O)N[C@H](C(=O)N[C@@H](CC(N)=O)C(=O)O)CSSC[C@H](NC(=O)[C@H](Cc1ccccc1)NC(=O)CN)C(=O)N[C@@H](Cc1c[nH]c3ccccc13)C(=O)N[C@@H](Cc1ccc(O)cc1)C(=O)N[C@@H](C(C)C)C(=O)N2 [compound 36] (H-GFCWYVCVYRNGSRVCYRRCN-OH; disulfide 3-20, 7-16 (inferred); N-terminus and C-terminus assumed) | 0.4 |
| CC(C)[C@@H]1NC(=O)CNC(=O)[C@H](CC(N)=O)NC(=O)[C@H](CCCNC(=N)N)NC(=O)[C@H](Cc2ccc(O)cc2)NC(=O)[C@H](C(C)C)NC(=O)[C@@H]2CSSC[C@H](NC(=O)CNC(=O)[C@H](CCCNC(=N)N)NC1=O)C(=O)N[C@@H](Cc1ccc(O)cc1)C(=O)N[C@@H](CCCNC(=N)N)C(=O)N[C@@H](CCCNC(=N)N)C(=O)N[C@H](C(=O)N[C@@H](CC(N)=O)C(=O)O)CSSC[C@H](NC(=O)[C@H](Cc1ccccc1)NC(=O)CN)C(=O)N[C@@H](Cc1c[nH]c3ccccc13)C(=O)N[C@@H](Cc1ccc(O)cc1)C(=O)N[C@@H](C(C)C)C(=O)N2 [compound 38] (H-GFCWYVCVYRNGVRGCYRRCN-OH; disulfide 3-20, 7-16 (inferred); N-terminus and C-terminus assumed) | 0.07 |
| CC(C)[C@@H]1NC(=O)CNC(=O)[C@H](CC(N)=O)NC(=O)[C@H](CCCNC(=N)N)NC(=O)[C@H](Cc2ccc(O)cc2)NC(=O)[C@H](C(C)C)NC(=O)[C@@H]2CSSC[C@H](NC(=O)[C@H](Cc3c[nH]cn3)NC(=O)[C@H](CCCNC(=N)N)NC1=O)C(=O)N[C@@H](Cc1ccc(O)cc1)C(=O)N[C@@H](CCCNC(=N)N)C(=O)N[C@@H](CCCNC(=N)N)C(=O)N[C@H](C(=O)N[C@@H](CC(N)=O)C(=O)O)CSSC[C@H](NC(=O)[C@H](Cc1ccccc1)NC(=O)CN)C(=O)N[C@@H](Cc1c[nH]c3ccccc13)C(=O)N[C@@H](Cc1ccc(O)cc1)C(=O)N[C@@H](C(C)C)C(=O)N2 [compound 39] (H-GFCWYVCVYRNGVRHCYRRCN-OH; disulfide 3-20, 7-16 (inferred); N-terminus and C-terminus assumed) | 0.02 |
| CC(C)[C@@H]1NC(=O)CNC(=O)[C@H](CC(N)=O)NC(=O)[C@H](CCCNC(=N)N)NC(=O)[C@H](Cc2ccc(O)cc2)NC(=O)[C@H](C(C)C)NC(=O)[C@@H]2CSSC[C@H](NC(=O)[C@H](CC(N)=O)NC(=O)[C@H](CCCNC(=N)N)NC1=O)C(=O)N[C@@H](Cc1ccc(O)cc1)C(=O)N[C@@H](CCCNC(=N)N)C(=O)N[C@@H](CCCNC(=N)N)C(=O)N[C@H](C(=O)N[C@@H](CC(N)=O)C(=O)O)CSSC[C@H](NC(=O)[C@H](Cc1ccccc1)NC(=O)CN)C(=O)N[C@@H](Cc1c[nH]c3ccccc13)C(=O)N[C@@H](Cc1ccc(O)cc1)C(=O)N[C@@H](C(C)C)C(=O)N2 [compound 41] (H-GFCWYVCVYRNGVRNCYRRCN-OH; disulfide 3-20, 7-16 (inferred); N-terminus and C-terminus assumed) | 0.03 |
| CC(C)[C@@H]1NC(=O)CNC(=O)[C@H](CC(N)=O)NC(=O)[C@H](CCCNC(=N)N)NC(=O)[C@H](Cc2ccc(O)cc2)NC(=O)[C@H](C(C)C)NC(=O)[C@@H]2CSSC[C@H](NC(=O)[C@H](CCC(N)=O)NC(=O)[C@H](CCCNC(=N)N)NC1=O)C(=O)N[C@@H](Cc1ccc(O)cc1)C(=O)N[C@@H](CCCNC(=N)N)C(=O)N[C@@H](CCCNC(=N)N)C(=O)N[C@H](C(=O)N[C@@H](CC(N)=O)C(=O)O)CSSC[C@H](NC(=O)[C@H](Cc1ccccc1)NC(=O)CN)C(=O)N[C@@H](Cc1c[nH]c3ccccc13)C(=O)N[C@@H](Cc1ccc(O)cc1)C(=O)N[C@@H](C(C)C)C(=O)N2 [compound 42] (H-GFCWYVCVYRNGVRQCYRRCN-OH; disulfide 3-20, 7-16 (inferred); N-terminus and C-terminus assumed) | 0.04 |
| CC(C)[C@@H]1NC(=O)CNC(=O)[C@H](CC(N)=O)NC(=O)[C@H](CCCNC(=N)N)NC(=O)[C@H](Cc2ccc(O)cc2)NC(=O)[C@H](C(C)C)NC(=O)[C@@H]2CSSC[C@H](NC(=O)[C@H](CO)NC(=O)[C@H](CCCNC(=N)N)NC1=O)C(=O)N[C@@H](Cc1ccc(O)cc1)C(=O)N[C@@H](CCCNC(=N)N)C(=O)N[C@@H](CCCNC(=N)N)C(=O)N[C@H](C(=O)N[C@@H](CC(N)=O)C(=O)O)CSSC[C@H](NC(=O)[C@H](Cc1ccccc1)NC(=O)CN)C(=O)N[C@@H](Cc1c[nH]c3ccccc13)C(=O)N[C@@H](Cc1ccc(O)cc1)C(=O)N[C@@H](C(C)C)C(=O)N2 [compound 44] (H-GFCWYVCVYRNGVRSCYRRCN-OH; disulfide 3-20, 7-16) | 0.15 |
| CC(C)[C@@H]1NC(=O)CNC(=O)[C@H](CC(N)=O)NC(=O)[C@H](CCCNC(=N)N)NC(=O)[C@H](Cc2ccc(O)cc2)NC(=O)[C@H](C(C)C)NC(=O)[C@@H]2CSSC[C@H](NC(=O)[C@H]([C@@H](C)O)NC(=O)[C@H](CCCNC(=N)N)NC1=O)C(=O)N[C@@H](Cc1ccc(O)cc1)C(=O)N[C@@H](CCCNC(=N)N)C(=O)N[C@@H](CCCNC(=N)N)C(=O)N[C@H](C(=O)N[C@@H](CC(N)=O)C(=O)O)CSSC[C@H](NC(=O)[C@H](Cc1ccccc1)NC(=O)CN)C(=O)N[C@@H](Cc1c[nH]c3ccccc13)C(=O)N[C@@H](Cc1ccc(O)cc1)C(=O)N[C@@H](C(C)C)C(=O)N2 [compound 45] (H-GFCWYVCVYRNGVRTCYRRCN-OH; disulfide 3-20, 7-16) | 0.02 |
| CC(C)[C@@H]1NC(=O)CNC(=O)[C@H](CC(N)=O)NC(=O)[C@H](CCCNC(=N)N)NC(=O)[C@H](Cc2ccc(O)cc2)NC(=O)[C@H](C(C)C)NC(=O)[C@@H]2CSSC[C@H](NC(=O)[C@H](C(C)C)NC(=O)[C@H](CCCNC(=N)N)NC1=O)C(=O)N[C@@H](Cc1c[nH]cn1)C(=O)N[C@@H](CCCNC(=N)N)C(=O)N[C@@H](CCCNC(=N)N)C(=O)N[C@H](C(=O)N[C@@H](CC(N)=O)C(=O)O)CSSC[C@H](NC(=O)[C@H](Cc1ccccc1)NC(=O)CN)C(=O)N[C@@H](Cc1c[nH]c3ccccc13)C(=O)N[C@@H](Cc1ccc(O)cc1)C(=O)N[C@@H](C(C)C)C(=O)N2 [compound 46] (H-GFCWYVCVYRNGVRVCHRRCN-OH; disulfide 3-20, 7-16 (inferred); N-terminus and C-terminus assumed) | 0.12 |

Source: patent US20160158317A1, “Antimicrobial Peptide Variants and Polynucleotides Encoding Same” (Adenium Biotech A/S, priority 2010, published 2016)
